The values that follow come from patent US20080269184A1, “Niosome Having Metal Porphyrin Complex Embedded Therein, Process For Producing The Same And Drug With The Use Thereof” (priority 2004, published 2008).

Read-outs that look alike come from different tables or passages of the source.

The conditions of experiment [1]: value disclosed by Ohse, Kawakami et al., J. Inorg. Biochem., 85, 201 (2001); cited from earlier work.
The conditions of experiment [2]: value disclosed by Fridovich et al., J. Biol. Chem., 273, 24251 (1998); read-out: IC50 (SOD activity); cited from earlier work.
Experiment [3] in a line: SOD activity by the cytochrome c method (xanthine/xanthine oxidase). It is filed as biochemical. The following applies: pH 7.8, 25° C., metalloporphyrin concentration. The procedure:
The SOD activity (i.e. O2— extinction activity) of Por-embedding niosome was evaluated according to the cytochrome c method ((1) J. M. Mccord and I. Fridovich, J. Biol. Chem., 244, 6049 (1969) and (2) J. Butler, W. H. Kopenol, E. Margoliash, J. Biol. Chem., 257, 10747 (1982)). A specific procedure was as follows: Five or more Por-embedding niosome solutions (A solutions) with different metalloporphyrin concentrations ranging from 0 to 1,000 μM were prepared. […] The UV-vis was also measured for a solution without addition of Por-embedding niosome (blank) in the same manner.
The ferrocytochrome c formation rates in a solution not containing Por-embedding niosome (vo) and a solution containing Por-embedding niosome (vi) were determined from the relationship between the time and the absorbance at 550 nm in the UV-vis measurement over time. The inhibition coefficient (IC) was calculated according to the following formula to determine the concentration of metalloporphyrin when IC=50% (IC50) from the relationship between the concentration of metalloporphyrin complex and IC. […] The SOD activity of MnT4MPyP and the like was evaluated in the same manner for reference. […]

Experiment [4] in a line: SOD activity by the stopped flow method (potassium superoxide). Format: biochemical. The following applies: HEPES buffer pH 8.1, 36° C. Here is the method:
The SOD activity (i.e. ° 2-extinction activity) of Por-embedding niosome was evaluated according to the stopped flow method of Riley et al. (D. P. Riley, W. L. Rivers, and R. H. Weiss, Anal. Biochem., 196, 344 (1991)). A specific procedure was as follows: 60 mM HEPES/HEPES Na buffer solutions (8.1 pH) containing Por-embedding niosome at different concentrations were rapidly mixed with a dimethyl sulfoxide solution of potassium superoxide, which is an O2^−. generation source, at 36° C. to measure over time an attenuation of absorbance at 245 nm due to O2^−. (a decay curve of O2^−. extinction reaction). The relationship of ln (absorbance) and time was determined from the decay curve. The apparent rate constant was calculated from the inclination of the resulting relationship. The rate constant (kcat) of the O2^−. extinction reaction was then determined from the inclination of the relationship of the metalloporphyrin complex concentration and the apparent rate constant.

Turning to `C[n+]1ccc(-c2c3nc(c(-c4cc[n+](C)cc4)c4ccc([n-]4)c(-c4cc[n+](C)cc4)c4nc(c(-c5cc[n+](C)cc5)c5ccc2[n-]5)C=C4)C=C3)cc1.[Mn+2]` [MnT4MPyP, Manganese[5,10,15,20-tetrakis(4-methylpyridyl)porphyrin]], the kcat (rate constant of the O2−. extinction reaction) in experiment [1] was 2.2e+07 M⁻¹ s⁻¹; in experiment [4], 1.4e+07 M⁻¹ s⁻¹. The values for the IC50 in experiment [2] and in experiment [3] were 700 nM and 430 nM, respectively.

For the molecule “manganese[5,10,15,20-tetrakis(2-methylpyridyl)porphyrin] [MnT2MPyP]”, the IC50 in experiment [3] came to 180 nM. In experiment [4], the “kcat (rate constant of the O2−. extinction reaction)” value was determined as 2.1e+07 M⁻¹ s⁻¹.
